Read-outs that look alike come from different tables or passages of the source.
Tests used:
[1] = test system: P. falciparum K13 mutant parasites SP045 and SP060; test: Growth, Resistance, and Recovery Assay (GRRA), ring-stage survival dose-response; format: cell-based, Plasmodium falciparum; conditions: Plasmodium falciparum
Experimental: These isolates carry the validated R561H Kelch 13 propeller domain mutation associated with delayed parasite clearance in East Africa[24],[25]. Using the 6-hour GRRA[23], all strains were thawed, frozen, and cultured under standard conditions at 5% hematocrit. Samples parasitemia was measured by flow cytometry. Parasite cultures that were predominantly segmented schizonts were synchronized using a single Percoll layer method. Cultures that met quality control requirements of ≥70% early ring stage and ≥1% parasitemia were adjusted to 0.25% parasitemia at 2% hematocrit. […] The GRRA50 implements 11 RSA experiments to generate a dose-response curve for each parasite line per drug. Master mixes of samples were aliquoted into 2 technical replicates of 275 µL each in 96 well plates (2 treated each condition, 2 untreated). At 6 h post-exposure, 200 µL of media was removed from the wells and replaced with 200 µL of incomplete media and spun for 3 min at 800 g to rinse. The rinse was repeated a total of 3 times, after which 200 µL complete media was added back to the wells. At 120 h post-treatment, thin microscopy smears were made using 2 µL of culture for each sample and 20 µL of culture was transferred to PCR strips and stored at −80 °C until qPCR quantification. A standard curve of known parasitemia was generated using the NF54 parasite line for each qPCR quantification for conversion from Cycle threshold (Ct) to parasitemia and comparison between qPCR experiments. Replicate viability was calculated according to the GRRA method. Each individual reaction mixture and cycling conditions were set to previously used methods. Ct was calculated using AB1 SDA 2.4.1. software. […] We find that commonly reported thresholds (cutoffs) for resistance (e.g., 1% survival in traditional RSA) may not be broadly applicable, especially with lower thresholds subject to potential artifacts due to markedly low survival rates of ART-sensitive and low-level ART-resistant parasites. Regular RSA relies on a single drug concentration, 700 nM. To gain a more fine-scale quantification to compare drug susceptibilities with relevance to therapeutic success and failure, we developed the GRRA50 to generate full dose-response curves for precise quantitative comparisons.

[2] = test system: P. falciparum mutant T111 lines; test: drug susceptibility of T111-selected cyt b mutant lines; format: cell-based, Plasmodium falciparum
Experimental: DNA extractions were performed on clonal parasites using the QIAamp DNA extraction kit (QIAGEN Inc, Valencia, CA) or ZYMO Quick gDNA Miniprep kit (Zymo Research Corp, Irvine, CA). For sequencing of the open reading frame of pfcytb, PCR was performed with genomic DNA using forward and reverse flanking primers for cyt b primer 1: 5’-[…]-3’ and primer 2: 5’-[…]-3’. PCR products were subjected to enzymatic cleanup with ExoSAP-IT (Thermo Fisher Scientific) and sent for Sanger sequencing (Eurofins Genomics, Louisville, KY) with PCR primer 2 paired with an internal forward primer: 5’-[…]-3’ and an internal reverse primer: 5’-[…]-3’. Sequences were assembled using 4Peaks software (Nucleobytes, Amsterdam, Netherlands) and aligned with Clustal Omega (EMBL-EBI). For sequencing of the open reading frame of pfdhodh, PCR was performed with genomic DNA using forward primer: 5’-[…]-3’ and reverse primer: 5’-[…]-3’. PCR products were prepared for Sanger sequencing and analyzed as described above, except using two forward primers: 5’-[…]-3’ and 5’-[…]-3’ and with two reverse primers: 5’-[…]-3’ and 5’-[…]-3’.
(§1) Drug susceptibility assays against P. falciparum strains were performed using a SYBR Green based assay. D6 and Dd2 were obtained from MR4. Tm90-C2B was obtained from WRAIR. Dd2-D1^I22L and ELQ-300 were obtained from VAPORHCS. D10yDHODH was obtained as a courtesy from Dr. Akhil Vaidya at Drexel University. P. yoelii ATV^r and ELQ-300^r clones were obtained from VAPORHCS.

[3] = test system: P. yoelii wild type, ATV^r and ELQ-300^r clones; test: 4-day suppression model with ATV- and ELQ-300-resistant clones; format: in vivo, P. yoelii in CF1 mice; conditions: (95% CI)
Source text: Animals were housed at the VAPORHCS in Thoren Maxi-Miser microisolator cages (78 sq. in. floor space) with a maximum density of five females or four males per cage. Cages were maintained on a 12-h light/dark cycle and provided with autoclaved nesting materials (nestlets) for environmental enrichment. All mice had ad libitum access to food and water. Four- to five-week-old female and male outbred CF1 mice (Charles River Laboratories, Raleigh, NC, USA) were randomly assigned to treatment and control groups using a simple randomization procedure (e.g., computer-generated random numbers) to ensure balanced distribution of baseline body weights and starting parasitemia levels across all cohorts. Groups of four mice (n = 4, mean body weight of each group was ~30 g) were infected intravenously with 3.5 × 10^4 P. yoelii (Kenya strain, MRA-428) from a donor animal. Drug administration commenced the day after the animals were inoculated (Day 1). The test drug or the drug combination was dissolved in PEG-400 and administered by oral gavage once daily for 4 successive days in the 4-day suppression model, but only once on Day 1 in the single-dose cure model. Blood was collected via the tail vein with the aid of a syringe needle on Day 5 and then at weekly intervals through Day 28. Blood films were Giemsa-stained and examined microscopically to determine the level of parasitemia. All mice were observed daily to assess clinical signs. Animals with observable parasitemia following the experiments were euthanized; animals cleared of parasitemia from their bloodstream were observed daily with assessment of parasitemia performed weekly until Day 28, at which point, the animal(s) were scored as cured of the infection and then humanely euthanized. All treated mice with a negative smear on Day 28 were considered cured (100% protection).
as §1

[4] = test system: P. falciparum D6, Dd2, Tm90-C2B, Dd2-D1^I22L, D10yDHODH; test: microbe, parasite or virus in culture; format: cell-based, Plasmodium falciparum; conditions: read-out: in vitro IC50 vs P. falciparum
Experimental: as §1

[5] = cytotoxicity against HepG2 cells; format: cell-based; conditions: human, HepG2 cells; read-out: inhibition IC50 vs HepG2
Experimental: Cytotoxicity was evaluated in human HepG2 liver cells, using an MTT assay. Briefly, HepG2 cells were cultured in complete Dulbecco’s modified Eagle’s medium (DMEM; Gibco-Invitrogen, No. 11995-065) prepared by supplementing DMEM with 10% heat inactivated FBS (Gibco-Invitrogen, No. 16000-036), 100 units/mL penicillin, and 100 µg/mL streptomycin. Cell viability was assessed using trypan blue. Ninety-six-well plates were seeded with 2 × 10^4 cells per well and incubated at 37 °C overnight in a humidified 5% CO2 atmosphere. Test compound plates were prepared with an INTEGRA assist plus station and 96-well plates containing 11 duplicate 2-fold serial dilutions of test compound suspended in DMSO. The diluted test compound was then added to the corresponding well preseeded with HepG2 cells. […] After incubation, 20 µL of a 0.1 mg/mL solution of resazurin diluted in PBS was added to each well, and all plates were subsequently incubated for 3–4 h in an incubator. Absorbance was determined with the Molecular Devices SpectraMax plate reader. Three independent experiments, each in duplicate, were performed, and the IC50 values were determined using GraphPad Prism software (Version 10) using the non-linear regression equation (sigmoidal dose-response, variable slope).

[6] = Plasmodium falciparum, DD2, Supplementary Table 4, Dd2
[7] = Plasmodium falciparum, DD2, Supplementary Table 4, Dd2-A131S-140I-259L-264L
[8] = Plasmodium falciparum, DD2, Supplementary Table 4, Dd2-B131S-140I-259L-264L
[9] = Plasmodium falciparum, DD2, Supplementary Table 4, Dd2-D0119L-131S-259L (pfdhodh mutation)
[10] = Plasmodium falciparum, DD2, Supplementary Table 4, Dd2-D1131S-140I-259L (pfdhodh mutation)
[11] = Dd2-A^131S-140I-259L-264L, read-out: inhibition IC50 vs P. falciparum
[12] = Dd2-A^131S-140I-259L, read-out: inhibition IC50 vs P. falciparum
[13] = Dd2-B^87V-131S-140I-259L, read-out: inhibition IC50 vs P. falciparum
[14] = Dd2-B^131S-140I-259L-264L, read-out: inhibition IC50 vs P. falciparum
[15] = Dd2-C0^119L-131S-259L (pfdhodh mutation), read-out: inhibition IC50 vs P. falciparum
[16] = Dd2-C1^131S-140I-259L (pfdhodh mutation), read-out: inhibition IC50 vs P. falciparum
[17] = Dd2, read-out: inhibition IC50 vs P. falciparum
[18] = Dd2^131S-259L, read-out: inhibition IC50 vs P. falciparum
[19] = Dd2^131S, read-out: inhibition IC50 vs P. falciparum
[20] = Dd2^259L, read-out: inhibition IC50 vs P. falciparum

Compound	IC50 [2, 6] [nM]	IC50 [2, 7] [nM]	IC50 [2, 8] [nM]	IC50 [2, 9] [nM]	IC50 [2, 10] [nM]	IC50 [2, 11] [nM]	IC50 [2, 12] [nM]	IC50 [2, 13] [nM]	IC50 [2, 14] [nM]	IC50 [2, 15] [nM]	IC50 [2, 16] [nM]	IC50 [2, 17] [nM]	IC50 [2, 18] [nM]	IC50 [2, 19] [nM]	IC50 [2, 20] [nM]	other results
C[C@H]1[C@@H](O)O[C@@H]2O[C@@]3(C)CC[C@H]4[C@H](C)CC[C@@H]1[C@@]24OO3 [DHA, dihydroartemisinin]	1.7 ± 0.14	2.3 ± 0.25	2.3 ± 0.18	2.2 ± 0.18	2.4 ± 0.2											IC50 ([1]; read-out: GRRA50, SP045 (K13 V555A, ART-S)): 7.7 nM; IC50 ([1]; read-out: GRRA50, SP060 (K13 R561H, ART-R)): 25 nM
Cc1cc(Nc2ccc(S(F)(F)(F)(F)F)cc2)n2nc(C(C)(F)F)nc2n1 [DSM265]																IC50 ([2]; Plasmodium falciparum, DD2, read-out: inhibition IC50 vs P. falciparum, Dd2): 3.2 ± 0.3 nM; IC50 ([2]; Plasmodium falciparum, DD2, read-out: inhibition IC50 vs P. falciparum, Dd2-A^131S-140I-259L): 3.2 ± 0.52 nM; IC50 ([2]; Plasmodium falciparum, DD2, read-out: inhibition IC50 vs P. falciparum, Dd2-A^131S-140I-259L-264L): 1.2 ± 0.075 nM; IC50 ([2]; Plasmodium falciparum, DD2, read-out: inhibition IC50 vs P. falciparum, Dd2-B^87V-131S-140I-259L): 3.5 ± 0.37 nM; IC50 ([2]; Plasmodium falciparum, DD2, read-out: inhibition IC50 vs P. falciparum, Dd2-B^131S-140I-259L-264L): 2.8 ± 0.3 nM; IC50 ([2]; Plasmodium falciparum, DD2, read-out: inhibition IC50 vs P. falciparum, Dd2-C0^119L-131S-259L (pfdhodh mutation)): 795 ± 235 nM; IC50 ([2]; Plasmodium falciparum, DD2, read-out: inhibition IC50 vs P. falciparum, Dd2-C1^131S-140I-259L (pfdhodh mutation)): 563 ± 203 nM; IC50 ([2]; Plasmodium falciparum, DD2, read-out: inhibition IC50 vs P. falciparum, Dd2^131S): 1.9 ± 0.22 nM; IC50 ([2]; Plasmodium falciparum, DD2, read-out: inhibition IC50 vs P. falciparum, Dd2^131S-259L): 2.8 ± 1.2 nM; IC50 ([2]; Plasmodium falciparum, DD2, read-out: inhibition IC50 vs P. falciparum, Dd2^259L): 3.3 ± 1 nM
COc1cc2[nH]c(C)c(-c3ccc(Oc4ccc(OC(F)(F)F)cc4)cc3)c(=O)c2cc1Cl [ELQ-300]						35 ± 3.2	52 ± 5.5	67 ± 4.6	25 ± 2.7	221 ± 50	225 ± 73	38 ± 5	26 ± 5.2	20 ± 5.8	23 ± 4.3	ED50 ([3]; P. yoelii ATVrY268S): 0.040 (0.036–0.044) mg/kg/day; ED50 ([3]; P. yoelii ELQ-300rI22L): 1.27 (0.97–1.67) mg/kg/day; ED50 ([3]; P. yoelii wild type): 0.031 (0.029–0.033) mg/kg/day; IC50 ([4]; D6): 3.5 ± 0.23 nM; IC50 ([4]; D10yDHODH): > 2500 nM; IC50 ([4]; Dd2-D1^I22L (ELQ-300-resistant)): 245 ± 27 nM; IC50 ([4]; Dd2): 3.1 ± 0.15 nM; IC50 ([4]; Tm90-C2B (cyt b Y268S, ATV-resistant)): 1.3 ± 0.084 nM
CCCCN(CCCC)CC(O)c1cc(Cl)cc2c1-c1ccc(Cl)cc1/C2=C/c1ccc(Cl)cc1 (stereo not drawn) [LUM, lumefantrine]	1.2 ± 0.098	1.7 ± 0.086	1.7 ± 0.36	1.5 ± 0.11	2.4 ± 0.11											
CO/C(=C/C(N)=O)[C@H](C)[C@H](/C=C/c1csc(-c2csc([C@@H](C)/C=C/C=C/C(C)C)n2)n1)OC [MYX, myxothiazol]						16 ± 4.1	192 ± 11	373 ± 11	34 ± 3.3	1540 ± 110	723 ± 141	24 ± 3.4	975 ± 139	383 ± 38	64 ± 13	
Clc1ccc2c(N3CCN(CCCN4CCN(c5ccnc6cc(Cl)ccc56)CC4)CC3)ccnc2c1 [PIP, piperaquine]	7.4 ± 0.57	9.9 ± 0.65	12 ± 2.3	11 ± 1.2	9.1 ± 1.7											
OC(c1cc(C(F)(F)F)nc2c(C(F)(F)F)cccc12)C1CCCCN1 (stereo not drawn) [mefloquine]																IC50 at 24 h [5]: 4940 nM
ELQ-400						80 ± 15	133 ± 17	177 ± 3.1	126 ± 32	255 ± 62	501 ± 101	4 ± 0.45	28 ± 13	4.2 ± 0.41	24 ± 6.7	
